This note sets out measurements from patent US9650390B2, “Water-soluble taxane derivatives and uses thereof” (priority 2014, dated 2017).

Data set [1] concerns human prostate cancer PC-3. Put plainly: Inhibitory activity of docetaxel derivatives on subcutaneously xenografted tumor PC-3 in nude mice. The data set is classed as in vivo. The following applies: 33.6 mg/kg, D0 IV; for Weight change (%) D6: nude mice; for T/C (%) D20 / Tumor volume (mm^3) (D20) / Tumor inhibitory percent (%) D20 / Tumor volume (mm^3) (D0): PC-3 xenograft in nude mice; for Tumor inhibitory percent (%) D20: P = 0.000 vs control; for Tumor volume (mm^3) (D0): baseline at grouping (D0).
Excerpt: Purpose: to evaluate and compare the inhibitory activity of the water soluble docetaxel derivatives and docetaxel on subcutaneously xenografted tumor of human prostate cancer PC-3 in nude mice
Human prostate cancer PC-3 cells were subcutaneously inoculated into nude mice. After the tumor volume reached 100-150 mm^3, the animals were randomly divided into several groups, and administered with the water soluble docetaxel derivatives of the following formula and docetaxel, respectively once on the same day (D0). The tumor volume was measured 2-3 times per week, the animals were weighed and the data were recorded until day 20 (D20) after grouping.
The tumor volume (V) was calculated according to the equation: V=½×a×b^2, wherein a and b represent the length and the width, respectively.
T/C (%)=(T−T0)/(C−C0)×100, wherein T and C represent the tumor volume at the end of the experiment; and T0 and C0 represent the tumor volume at the beginning of the experiment.

A short description of data set [2]: In vitro dissociation in blood plasma of rabbit. It is filed as in vitro ADME, New Zealand white rabbits. Particulars: fresh New Zealand white rabbit plasma, 37° C. The protocol:
The obtained water soluble taxane derivatives of the following formulae were formulated as 0.2 mg/ml aqueous solutions. […]

Data set [3] is described as follows: In vitro dissociation in blood plasma of rat. It is filed as in vitro ADME, SD rats. The following applies: fresh SD rat plasma, 37° C.; for Sampling time/Dissociation percent (%) 2 min: 2 min incubation; for Sampling time/Dissociation percent (%) 5 min: 5 min incubation; for Sampling time/Dissociation percent (%) 10 min: 10 min incubation. The protocol:
The obtained water soluble taxane derivatives of the following formulae were formulated as 0.2 mg/ml aqueous solutions. […] After 2 min, 5 min and 10 min of incubation, 0.2 ml of solutions were respectively taken from each of the samples, and added to acetonitrile (0.4 ml) cooled to −20° C. for precipitation of protein.

Counter-ions that a name gives are not always drawn.

For `CCN(C)CCC(F)C(=O)OC(C(=O)OC1CC2(O)C(OC(=O)c3ccccc3)C3C4(OC(C)=O)COC4CC(O)C3(C)C(=O)C(O)C(=C1C)C2(C)C)C(NC(=O)OC(C)(C)C)c1ccccc1.CS(=O)(=O)O` [Compound C25, 2′-O-[4-N-methyl-N-ethylamino-2(R)-fluorobutyryl]docetaxel methanesulfonate], in data set [1], the “Weight change (%) D6” value is on record as −13.6%, the “T/C (%) D20” value is −62%, the “Tumor volume (mm^3) (D20)” value came to 30.4 ± 11.1 mm^3 and the “Tumor inhibitory percent (%) D20” value stood at 143%. The “Tumor volume (mm^3) (D0)” value in data set [1] came out at 113.8 ± 3.0 mm^3.
Take `CO[C@H]1C(=O)[C@]2(C)[C@@H](OC)C[C@H]3OC[C@@]3(OC(C)=O)[C@H]2[C@H](OC(=O)c2ccccc2)[C@]2(O)C[C@H](OC(=O)[C@H](OC(=O)[C@@H](CCN)C(F)F)[C@@H](NC(=O)OC(C)(C)C)c3ccccc3)C(C)=C1C2(C)C.O=S(=O)(O)O` [Compound C10, 2′-O-[4-amino-2(R)-difluoromethylbutyryl]cabazitaxel sulfate]: in data set [2], the “Sampling time/Dissociation percent (%) 2 min” value is 48.9%, the “Sampling time/Dissociation percent (%) 5 min” value came out at 68.4% and the “Sampling time/Dissociation percent (%) 10 min” value was 91.3%. In data set [3], the “Sampling time/Dissociation percent (%) 2 min” value came out at 45.6%, the “Sampling time/Dissociation percent (%) 5 min” value is listed as 87.1% and the “Sampling time/Dissociation percent (%) 10 min” value came to 97.3%.
Consider `CC(=O)O[C@@]12CO[C@@H]1C[C@H](O)[C@@]1(C)C(=O)[C@H](O)C3=C(C)[C@@H](OC(=O)[C@H](OC(=O)C(CCN(C)C)C(F)F)[C@@H](NC(=O)OC(C)(C)C)c4ccccc4)C[C@@](O)([C@@H](OC(=O)c4ccccc4)[C@H]21)C3(C)C.Cl` (stereo partly drawn) [Compound C29, 2′-O-[4-N,N-dimethylamino-2(R,S)-2-difluoromethylbutyryl]docetaxel hydrochloride], for which, in data set [1], the “Weight change (%) D6” value was −15.1%, the “T/C (%) D20” value is recorded as −37%, the “Tumor volume (mm^3) (D20)” value worked out at 36.8 ± 13.4 mm^3 and the “Tumor inhibitory percent (%) D20” value turned out to be 85%. Also, the “Tumor volume (mm^3) (D0)” value in data set [1] is given as 116.7 ± 3.1 mm^3.
For `CCCCC(CC(F)(C(=O)OC(C(=O)OC1CC2(O)C(OC(=O)c3ccccc3)C3C4(OC(C)=O)COC4CC(O)C3(C)C(=O)C(OC(C)=O)C(=C1C)C2(C)C)C(NC(=O)c1ccccc1)c1ccccc1)C(F)(F)F)N(C)C1CCCC1.Cl` (mixture of isomers) [Compound C15, 2′-O-[4-N-methyl-N-cyclopentylamino-2-trifluoromethyl-2-fluorooctanoyl]paclitaxel hydrochloride], in data set [3], the “Sampling time/Dissociation percent (%) 2 min” value is listed as 34.2%, the “Sampling time/Dissociation percent (%) 5 min” value is given as 45.3% and the “Sampling time/Dissociation percent (%) 10 min” value is given as 58.2%.
For `CCN(CC)CC[C@](C)(C(=O)O[C@@H](C(=O)O[C@H]1C[C@@]2(O)[C@@H](OC(=O)c3ccccc3)[C@@H]3[C@]4(OC(C)=O)CO[C@@H]4C[C@H](OC)[C@@]3(C)C(=O)[C@H](OC)C(=C1C)C2(C)C)[C@@H](NC(=O)OC(C)(C)C)c1ccccc1)C(F)(F)F.CS(=O)(=O)O` [Compound 11, 2′-O-[4-N,N-diethylamino-2-methyl-2(R)-2-trifluoromethylbutyryl]cabazitaxel methanesulfonate], in data set [2], the “Sampling time/Dissociation percent (%) 2 min” value is given as 56.2%, the “Sampling time/Dissociation percent (%) 5 min” value is reported as 80.5% and the “Sampling time/Dissociation percent (%) 10 min” value was 92.1%. In data set [3], the “Sampling time/Dissociation percent (%) 2 min” value was determined as 52.3%, the “Sampling time/Dissociation percent (%) 5 min” value was 89.6% and the “Sampling time/Dissociation percent (%) 10 min” value was found to be 97.2%.
For the compound `CO[C@H]1C(=O)[C@]2(C)[C@@H](OC)C[C@H]3OC[C@@]3(OC(C)=O)[C@H]2[C@H](OC(=O)c2ccccc2)[C@]2(O)C[C@H](OC(=O)[C@H](OC(=O)[C@@H](F)CCN(C)C)[C@@H](NC(=O)OC(C)(C)C)c3ccccc3)C(C)=C1C2(C)C.Cl` [Compound 08, 2′-O-[4-N,N-dimethylamino-2(S)-fluorobutyryl]cabazitaxel hydrochloride], in data set [2], the “Sampling time/Dissociation percent (%) 2 min” value was 89.9%, the “Sampling time/Dissociation percent (%) 5 min” value is given as 93.2% and the “Sampling time/Dissociation percent (%) 10 min” value worked out at 100%. Besides, in data set [3], the “Sampling time/Dissociation percent (%) 2 min” value worked out at 47.6%, the “Sampling time/Dissociation percent (%) 5 min” value is 87.6% and the “Sampling time/Dissociation percent (%) 10 min” value is 100%.
For `CCN(CC)CC[C@](C)(C(=O)O[C@@H](C(=O)O[C@H]1C[C@@]2(O)[C@@H](OC(=O)c3ccccc3)[C@@H]3[C@]4(OC(C)=O)CO[C@@H]4C[C@H](OC)[C@@]3(C)C(=O)[C@H](OC)C(=C1C)C2(C)C)[C@@H](NC(=O)OC(C)(C)C)c1ccccc1)C(F)(F)F.Cl` [Compound C11, 2′-O-[4-N,N-diethylamino-2-methyl-2(R)-2-trifluoromethylbutyryl]cabazitaxel hydrochloride], in data set [2], the “Sampling time/Dissociation percent (%) 2 min” value was found to be 61.2%, the “Sampling time/Dissociation percent (%) 5 min” value came out at 84.5% and the “Sampling time/Dissociation percent (%) 10 min” value worked out at 96.3%. In data set [3], the “Sampling time/Dissociation percent (%) 2 min” value is given as 51.2%, the “Sampling time/Dissociation percent (%) 5 min” value was found to be 88.4% and the “Sampling time/Dissociation percent (%) 10 min” value was determined as 95.9%.
`CCN(C)C(C)C[C@H](CC(F)F)C(=O)O[C@@H](C(=O)O[C@H]1C[C@@]2(O)[C@@H](OC(=O)c3ccccc3)[C@@H]3[C@]4(OC(C)=O)CO[C@@H]4C[C@H](O)[C@@]3(C)C(=O)[C@H](O)C(=C1C)C2(C)C)[C@@H](NC(=O)OC(C)(C)C)c1ccccc1.Cl` (stereo partly drawn) [Compound 12, 2′-O-[4-N-methyl-N-ethylamino-2(R)-2-difluoroethylvaleryl]docetaxel hydrochloride]: in data set [2], the “Sampling time/Dissociation percent (%) 2 min” value was 35.2%, the “Sampling time/Dissociation percent (%) 5 min” value is 61.3% and the “Sampling time/Dissociation percent (%) 10 min” value came out at 73.2%. In data set [3], the “Sampling time/Dissociation percent (%) 2 min” value is 43.6%, the “Sampling time/Dissociation percent (%) 5 min” value turned out to be 75.6% and the “Sampling time/Dissociation percent (%) 10 min” value is given as 89.6%.
“2′-O-[4-(aziridin-1-yl)amino-2,2-difluoroheptanoyl]docetaxel methanesulfonate [Compound 14]”: in data set [3], the “Sampling time/Dissociation percent (%) 2 min” value is recorded as 42.1%, the “Sampling time/Dissociation percent (%) 5 min” value turned out to be 55.7% and the “Sampling time/Dissociation percent (%) 10 min” value came to 72.5%.
With `COC1C(=O)C2(C)C(OC)CC3OCC3(OC(C)=O)C2C(OC(=O)c2ccccc2)C2(O)CC(OC(=O)C(OC(=O)C(F)CCN(C)C)C(NC(=O)OC(C)(C)C)c3ccccc3)C(C)=C1C2(C)C.Cl` [Compound 09, 2′-O-[4-N,N-dimethylamino-2(R,S)-fluorobutyryl]cabazitaxel hydrochloride], in data set [2], the “Sampling time/Dissociation percent (%) 2 min” value stood at 83.2%, the “Sampling time/Dissociation percent (%) 5 min” value came to 97.1% and the “Sampling time/Dissociation percent (%) 10 min” value was found to be 100%. In data set [3], the “Sampling time/Dissociation percent (%) 2 min” value turned out to be 47.8%, the “Sampling time/Dissociation percent (%) 5 min” value was determined as 89.1% and the “Sampling time/Dissociation percent (%) 10 min” value turned out to be 100%.
Regarding `CCCC(CC(F)(F)C(=O)O[C@@H](C(=O)O[C@H]1C[C@@]2(O)[C@@H](OC(=O)c3ccccc3)[C@@H]3[C@]4(OC(C)=O)CO[C@@H]4C[C@H](O)[C@@]3(C)C(=O)[C@H](O)C(=C1C)C2(C)C)[C@@H](NC(=O)OC(C)(C)C)c1ccccc1)N1CC1.Cl` (stereo partly shown) [Compound C14, 2′-O-[4-(aziridin-1-yl)amino-2,2-difluoroheptanoyl]docetaxel hydrochloride], in data set [3], the “Sampling time/Dissociation percent (%) 2 min” value came to 41.9%, the “Sampling time/Dissociation percent (%) 5 min” value was determined as 54.4% and the “Sampling time/Dissociation percent (%) 10 min” value is given as 71.3%.
As for `COC1C(=O)C2(C)C(OC)CC3OCC3(OC(C)=O)C2C(OC(=O)c2ccccc2)C2(O)CC(OC(=O)C(OC(=O)C(CCN)C(F)F)C(NC(=O)OC(C)(C)C)c3ccccc3)C(C)=C1C2(C)C.O=S(=O)([O-])O.[Na+]` [Compound 10, 2′-O-[4-amino-2(R)-difluoromethylbutyryl]cabazitaxel sodium bisulfate salt], in data set [2], the “Sampling time/Dissociation percent (%) 2 min” value is 38.1%, the “Sampling time/Dissociation percent (%) 5 min” value worked out at 63.2% and the “Sampling time/Dissociation percent (%) 10 min” value is 80.3%. In addition, in data set [3], the “Sampling time/Dissociation percent (%) 2 min” value is given as 45.2%, the “Sampling time/Dissociation percent (%) 5 min” value stood at 86.5% and the “Sampling time/Dissociation percent (%) 10 min” value was found to be 96.8%.
As for `CO[C@H]1C(=O)[C@]2(C)[C@@H](OC)C[C@H]3OC[C@@]3(OC(C)=O)[C@H]2[C@H](OC(=O)c2ccccc2)[C@]2(O)C[C@H](OC(=O)[C@H](OC(=O)[C@H](F)CCN(C)C)[C@@H](NC(=O)OC(C)(C)C)c3ccccc3)C(C)=C1C2(C)C` [Compound 07, 2′-O-[4-N,N-dimethylamino-2(R)-fluorobutyryl]cabazitaxel hydrochloride], in data set [2], the “Sampling time/Dissociation percent (%) 2 min” value is reported as 79.2%, the “Sampling time/Dissociation percent (%) 5 min” value came out at 95.5% and the “Sampling time/Dissociation percent (%) 10 min” value came to 100%. Besides, in data set [3], the “Sampling time/Dissociation percent (%) 2 min” value worked out at 49.5%, the “Sampling time/Dissociation percent (%) 5 min” value is recorded as 89.6% and the “Sampling time/Dissociation percent (%) 10 min” value worked out at 100%.
